Where two headings read alike, the source gives them in different places. Marks after values point to notes of the source that are not given here.
Experiments:
[1] = tested on: acute bronchitis induced by endotracheal administration of lipopolysaccharide; test: acute bronchitis (bronchiolitis/pneumonia) model, endotracheal LPS; assay type: in vivo, Wistar rats
From the text: The therapeutic effectiveness of glutaryl histamine was studied on an experimental model of acute bronchitis. The therapeutic effectiveness of glutaryl histamine was studied on an experimental model of acute bronchitis induced by endotracheal administration of lipopolysaccharide to laboratory Wistar rats through a probe. […] After administration of LPS, from 5 to 7 motions by the syringe plunger was made for better distribution of LPS in the pulmonary tract. After this manipulation, the animals were monitored for 2 hours to reveal complications after the administration.
Dexamethasone in a dose of 5 mg/kg was used a reference medicament.
Histology and morphometry. Respiratory and air pathways were studied on samples taken from the middle third (hilum of the lung) and apexes of the left lung. […] Material for the analysis of the lung histological structure in all animals was taken from the hilum and apex of the lung to study respiratory and air pathways.
The time history of changes in lungs after administration of LPS are shown in FIGS. 1, 2 and 3, wherein the changes are expressed by semi-quantitative scores (intensity of interstitial edema expressed by scores) or by a percentage ratio of the injured part of the lung.

[2] = tested on: acute respiratory distress syndrome (ARDS); test: ARDS model, single intravenous LPS 7.5 mg/kg; assay type: in vivo, rat; details: for Me (%) (mortality rate): 8 days; for Died: total number 10
Procedure: (§1) Since an intravenous administration of lipopolysaccharide (LPS) to animals is one of the most acceptable models for studying the pathogenesis, pathomorphological changes and consequences of acute respiratory distress syndrome, this model was used in this example. Tested medicament glutaryl histamine was administered for 9 days after the first administration of LPS, i.e. glutaryl histamine was administered for 12 days in total (3 days before the induction of ARDS and 9 days during and after the induction). The exception was dexamethasone since, according to the literature data and the information leaflet, long-time administration of steroidal anti-inflammatory agents can cause severe side effects. For this reason, dexamethasone was administered according to the following schedule: 49, 24 and 1 hour before the induction of ARDS in a dose of 5 mg/kg, for 3 days after the first injection of LPS in the same dose; the medicament was withdrawn by a gradual dose reduction for 3 days. Thus, dexamethasone was administered 9 times.
The mortality rate among the animals administered LPS in an intravenous dose of 7.5 mg/kg was 70% for 8 days. The most of them (60%) died on the first day, in particular, from 4 to 12-16 hours after the injection of LPS. The mortality rate among the animals administered glutaryl histamine was different from the rate in animals treated with dexamethasone; however, most of them also died on the first day, about in the same time period (Table 11).

[3] = tested on: acute respiratory distress syndrome (ARDS); test: ARDS model, multiple-dose intravenous LPS (LD30); assay type: in vivo, rat; details: for Died: total number 24
Procedure: as §1
At this step, animals were administered LPS at more lower dose, but for longer time period. They were received 2 mg/kg on days 1 and 2, and 3 and 4 mg/kg on days 3 and 4, respectively. The maximum mortality rate, similarly to the single-dose administration of LD70, was on the first day. On eighth day, mortality reached 33%.
The second step of the experiment comprises the evaluation of both the mortality rate of the animals with calculation of the protective index and narrower indexes used for determination of a specific protection provided by glutaryl histamine in ARDS. As was disclosed above, a lower dose of LPS (LD30) was used at the second stage. In addition, LPS was administered every day for 4 days. This method of administration was aimed at achieving the maximum disorder exactly in the lung for subsequent evaluation of possible protective action of glutaryl histamine.

[4] = tested on: acute rhinosinusitis induced by intranasal administration of formalin; assay type: in vivo, rat; details: for The number of caliciform cells within 1 mm of the mucosal membrane of the nasal septum: M ± m; for Mucopurulent catarrh (number of rats) / Mucous catarrh (number of rats) / Without changes (number of rats, mucous membrane in the nasal passages, macroscopic): n = 10
Procedure: Activity of glutaryl histamine was studied in an experimental model of acute rhinosinusitis (ARS).
Administration of 20 μl of 7.5% formalin to the rat nasal passages leads to the development of a clinical picture similar to the symptoms of acute rhinosinusitis in a human.
The tested medicament and reference medicaments were administered for 7 days after administration of 7.5% formalin. Normal saline solution was used as placebo. The animals were subjected to euthanasia on day 8 after induction of experimental acute rhinosinusitis by method of air embolism. During necropsy, nasal passages of all animals were sampled. The obtained material was placed into 10% neutral-buffered formalin for further histological analysis.
The mucous and submucous membranes of both nasal passages (respiratory and olfactory regions) of the experimental animals were subjected to a morphological analysis of the specific activity of glutaryl histamine.
After the clinical phase of the experiment, the material derived from the animals was subjected to the standard treatment to prepare histological paraffin sections with a thickness of 3 to 5 μm. The sections were stained with hematoxylin and eosin for a microscopic study. Comparison and histological analysis of changes were performed versus the group of intact rats.
The main pathological processes inherent in experimental acute rhinosinusitis, such as vascular congestion in mucous membrane, hyperplasia and necrosis of the epithelium, the number of caliciform cells within 1 mm of the mucous membrane in the nasal septum, were evaluated by a semi-quantitative method to evaluate the degree of pathophysiological changes in histological, histochemical and morphological studies.
The microscopic analysis of exudative disorder developed in rats with acute rhinitis was aimed at measuring the number of caliciform cells comprising acidic mucus (Table 3).

[5] = Glutaryl histamine 27 mg/kg, listed as Glutaryl histamine

Structure (SMILES): O=C(O)CCCC(=O)NCCc1c[nH]cn1 [glutaryl histamine]
- Peribronchial infiltration and interstitial edema (lung sections) ([1]; 27 mg/kg, 24 hours after administration of LPS): Reduction
- Peri- and intrabronchial infiltration and interstitial edema (lung sections) ([1]; 27 mg/kg, 72 hours after administration of LPS): Reduction
- interstitial edema ([1]; 27 mg/kg, first and third days, compared with the control group): reduction
- alveolar infiltration ([1]; 27 mg/kg, starting from the second day up to the third day): significant reduction
- Hemorrhagic symptoms in lungs ([1]; all time points, each tested dose): significantly weaker compared to the control group and the group of dexamethasone
- IP (%) (protective index) ([2]; Glutaryl histamine 0.5 mg/kg): 57.1%
- S (%) (survival rate) ([2]; Glutaryl histamine 0.5 mg/kg): 70%
- Me (%) (mortality rate) ([2]; Glutaryl histamine 0.5 mg/kg): 30%
- Died ([2]; Glutaryl histamine 0.5 mg/kg): 3
- IP (%) (protective index) ([2]; Glutaryl histamine 3 mg/kg): 28.6%
- S (%) (survival rate) ([2]; Glutaryl histamine 3 mg/kg): 50%
- Me (%) (mortality rate) ([2]; Glutaryl histamine 3 mg/kg): 50%
- Died ([2]; Glutaryl histamine 3 mg/kg): 5
- IP (%) (protective index) ([2]; Glutaryl histamine 9 mg/kg): 42.9%
- S (%) (survival rate) ([2]; Glutaryl histamine 9 mg/kg): 60%
- Me (%) (mortality rate) ([2]; Glutaryl histamine 9 mg/kg): 40%
- Died ([2]; Glutaryl histamine 9 mg/kg): 4
- IP (%) (protective index) ([2]; Glutaryl histamine 18 mg/kg): 28.6%
- S (%) (survival rate) ([2]; Glutaryl histamine 18 mg/kg): 50%
- Me (%) (mortality rate) ([2]; Glutaryl histamine 18 mg/kg): 50%
- Died ([2]; Glutaryl histamine 18 mg/kg): 5
- IP (%) (protective index) ([2]; Glutaryl histamine 27 mg/kg): 71.4%
- S (%) (survival rate) ([2]; Glutaryl histamine 27 mg/kg): 80%
- Me (%) (mortality rate) ([2]; Glutaryl histamine 27 mg/kg): 20%
- Died ([2]; Glutaryl histamine 27 mg/kg): 2
- IP (%) (protective index) ([2]; Glutaryl histamine 45 mg/kg): 28.6%
- S (%) (survival rate) ([2]; Glutaryl histamine 45 mg/kg): 50%
- Me (%) (mortality rate) ([2]; Glutaryl histamine 45 mg/kg): 50%
- Died ([2]; Glutaryl histamine 45 mg/kg): 5
- IP (%) (protective index) ([3]; Glutaryl histamine 0.5 mg/kg): 62.5%
- M (%) (mortality rate) ([3]; Glutaryl histamine 0.5 mg/kg): 12.5%
- S (%) (survival rate) ([3]; Glutaryl histamine 0.5 mg/kg): 87.5%
- Died ([3]; Glutaryl histamine 0.5 mg/kg): 3
- IP (%) (protective index) ([3]; Glutaryl histamine 27 mg/kg): 75%
- M (%) (mortality rate) ([3]; Glutaryl histamine 27 mg/kg): 8.3%
- S (%) (survival rate) ([3]; Glutaryl histamine 27 mg/kg): 91.7%
- IP (%) (protective index) [3, 5]: 75.0%
- Died ([3]; Glutaryl histamine 27 mg/kg): 2
- The number of caliciform cells within 1 mm of the mucosal membrane of the nasal septum ([4]; Glutaryl histamine 9 mg/kg): 29.0 ± 2.7* **
- Mucopurulent catarrh (number of rats) ([4]; Glutaryl histamine 9 mg/kg): 3
- Mucous catarrh (number of rats) ([4]; Glutaryl histamine 9 mg/kg): 4
- Without changes (number of rats, mucous membrane in the nasal passages, macroscopic) ([4]; Glutaryl histamine 9 mg/kg): 3
- The number of caliciform cells within 1 mm of the mucosal membrane of the nasal septum ([4]; Glutaryl histamine 27 mg/kg): 19.6±2.4
- The number of caliciform cells within 1 mm of the mucosal membrane of the nasal septum [4, 5]: 19.6 ± 2.4
- Mucopurulent catarrh (number of rats) ([4]; Glutaryl histamine 27 mg/kg): 1
- Mucous catarrh (number of rats) ([4]; Glutaryl histamine 27 mg/kg): 1
- Without changes (number of rats, mucous membrane in the nasal passages, macroscopic) ([4]; Glutaryl histamine 27 mg/kg): 8
- The number of caliciform cells within 1 mm of the mucosal membrane of the nasal septum ([4]; Glutaryl histamine 45 mg/kg): 23.9 ± 1.7* **
- Mucopurulent catarrh (number of rats) ([4]; Glutaryl histamine 45 mg/kg): 0
- Mucous catarrh (number of rats) ([4]; Glutaryl histamine 45 mg/kg): 0
- Without changes (number of rats, mucous membrane in the nasal passages, macroscopic) ([4]; Glutaryl histamine 45 mg/kg): 10

Reference: patent US20170143674A1, “Use of Glutaryl Histamine for the Treatment of Respiratory Tract Diseases” (LTD "VALENTA-INTELLEKT", priority 2011, published 2017)
